# Test results reported in article PMC7915858, “Complementary Effects of Carbamylated and Citrullinated LL37 in Autoimmunity and Inflammation in Systemic Lupus Erythematosus” (International Journal of Molecular Sciences, 2021).
# Assays:
# SLE serum antibody = test: ELISA for antibody reactivity of SLE sera to carb-/cit-/native LL37 and carb-REV, and its correlation with SLEDAI; type: binding, human; conditions: for Antibody reactivity in SLE patients with renal damage versus without renal damage: N=6 with and N=44 without renal damage, Mann-Whitney, Figure S3 panel a P 0.047
# Experimental: Anti-native LL37/cit-LL37/carb-LL37 antibodies were measured as described. Briefly, 96-well flat-bottom plates (Non-Binding surface polystyrene, Corning, Glendale, AZ USA) were coated with 2 μg/mL of native LL37, cit-LL37 or carb-LL37 in carbonate buffer (0.1 M NaHCHO3, pH 9) for 2 h (or overnight) and washed four times with PBS plus 0.1% Tween-20. This washing buffer was used for washing at all steps. The blocking buffer containing 2% bovine serum albumin (BSA, Sigma) in PBS was used for at least 1 h (or overnight) to saturate unspecific binding sites. After washing, sera were diluted at various concentrations (usually at 1:100 or 1:200) in PBS + 2% BSA followed by 1 h incubation with a horseradish peroxidase–conjugated (HRP) goat anti-human IgG (Sigma-Aldrich), diluted 1:10,000 in PBS. The color was developed for 5 min with 3,3′,5,5′-tetramethylbenzidine (TMB) substrate (Sigma-Aldrich). The reaction was stopped by adding 50 μL of 2 N H2SO4 and absorbance determined at 450 nm with a reference wavelength of 540 nm. Responses were considered positive when the OD measured exceeded the mean OD values measured in healthy donors’ plasma plus two standard deviations (+2SD), calculated on the HD group values, as described.
# (§1) Differences between mean values were assessed by Wilcoxon’s matched-pair signed rank test, to compare responses to antigens and control antigens in the same donor. We used Mann-Whitney test for comparison of T-cell and antibody responses between groups of patients and HD. Statistical significance was set at p < 0.05. Correlation analyses were performed by Spearman’s rank-correlation test. Data were analyzed by GraphPad Prism 7.0 or SPSS software.
# SLE CD4 T-cells = test: T-cell proliferation (BrdU incorporation, flow cytometry); type: cell-based, human; conditions: for SLE patients responding by T-cell proliferation: BrdU, positive if SI > 3, carb-LL37 8 of 25, native LL37 17 of 31, cit-LL37 16 of 31 SLE patients
# Experimental: PBMCs were purified from EDTA-treated blood, on Ficoll-Hypaque (Pharmacia Fine Chemicals, Uppsala, Sweden) and were incubated (10^5 cells/well) in 96-well-flat-bottom-microplates (BD) in T-cell-medium (RPMI 1640, 10% heat-inactivated human serum, HS, Gibco), 2 mM L-glutamine, 10 U/mL penicillin and 100 μg/mL streptomycin), with/without peptides. We performed assays on fresh cells, within 1-to-3 h from collection or on PBMCs frozen in 90% FCS−10% DMSO, whose viability we assessed by Trypan blue exclusion, with an inverted microscope. Recovery of live cells was between 65 and 85% of the frozen number. At day 3 and 5, BrdU was added (1 μg/mL). BrdU-incorporation was detected by APC-labeled anti-BrdU antibody (BD Pharmingen), after surface staining for CD4, CD3, CD8 and analyzed by flow cytometry (Gallios, BeckmanCoulter, Brea, CA, USA). Internal control for T-cell viability and proliferation was PHA treatment (2 μg/mL). SI for proliferation was calculated by dividing percent of BrdU-staining in the presence of each peptide antigen (LL37, carb-LL37, cit-LL37, LL37 reverse, REV; cit-LL37 reverse, cit-REV; carb-LL37 reverse, carb-REV) by the percent obtained in the untreated cells. SI for proliferation was considered positive when the values of percent of BrdU positive cells was three times higher than the values obtained with the control peptides (SI > 3). Assays were repeated twice with each patient. In rare cases in which background proliferation (culture with REV, cit-REV, carb-REV), exceeded antigen-specific proliferation (that is response to LL37, carb-LL37, cit-LL37), the assay was repeated three times. Concomitant phenotype analysis of LL37-responder T-cells included staining for CD3, CD4, CD8, CXCR5 (CXCR5 was assessed on BrdU/CD3/CD4-positive cells).
# as §1
# memory B-cells = test: Maturation of purified B-cells into plasma cells, flow cytometry; type: cell-based, human; conditions: 7 days; for Plasma cells (CD38highCD27highCD19neg): hrIL-2 50UI/ml; for Stimulation of B-cells to mature into plasma cells, peptide-DNA complex: peptide premixed with DNA (15 μg/mL), hrIL-2 50 UI/mL
# Experimental: PBMCs were isolated by Ficoll-Paque centrifugation (as described above). Total B-cells were isolated by using the Human B-Cell Isolation Kit II, (Miltenyi Biotec, Bergisch Gladbach, Germany), from fresh PBMCs. The purity of B-cells was verified by flow cytometry using the monoclonal anti-human CD19 fluorescein isothiocyanate (FITC). The percentage of memory B-cells was assessed by flow cytometry using monoclonal anti-human CD19 fluorescein, anti-human CD27 allophycocyanin and anti-human CD38 Pacific Blue antibodies (BD Biosciences, San Jose, CA, USA). The majority of B-cells (>80%) were memory cells expressing CD19/CD27 and low CD38 [29].
# LL37/cit-LL37/carb-LL37 were each premixed with DNA (15 μg/mL) and added to the B-cell cultures in RMPI 10% FCS, after a 15-min incubation at room temperature. At day 2, hrIL-2 at 50UI/mL was added to the cultures, which were kept in the incubator for 7 days.
# Maturation of B-cells into plasma cells was investigated after 7 days culture by flow cytometry (Gallios, BeckmanCoulter, Brea, CA, USA) following surface staining with the following monoclonal antibodies: anti-human CD19 fluorescein-, CD27 allophycocyanin-, CD38 Pacific Blue-conjugated (BD Biosciences, CA, USA). Analysis of the FCS files was performed by FlowJo (BD, San Jose, CA, USA) or by Kaluza (Beckman Coulter, Indianapolis, IN, USA).
# [1] = Net charge of the peptides; type: physicochemical
Substance,"SLE patients showing an antibody response to the antigen (SLE serum antibody; ELISA, 2 μg/mL coated antigen, sera 1:100 or 1:200, OD 450 nm, positive: OD > mean HD + 2SD, carb-LL37 28 of 45, carb-REV 8 of 47 SLE patients) [%]","SLE serum antibody reactivity (OD) compared to healthy donors (SLE serum antibody; ELISA, OD, Mann-Whitney's test)",Antibody reactivity in SLE patients with renal damage versus without renal damage (SLE serum antibody; ELISA),Correlation of antibody reactivity with SLEDAI (SLE serum antibody; Spearman),"Correlation of anti-carb-LL37 with anti-cit-LL37 antibody reactivity (SLE serum antibody; Spearman, Figure 2c)","Correlation of anti-carb-LL37 with anti-native LL37 antibody reactivity (SLE serum antibody; Spearman, Figure 2d left)","Proliferation of SLE CD4 T-cells (SLE CD4 T-cells; BrdU incorporation, stimulation index, Wilcoxon's test)","BrdU-positive CD3+CD4+ T-cells (SLE CD4 T-cells; BrdU staining, representative zebra plot, Figure S5a) [%]",SLE patients responding by T-cell proliferation (SLE CD4 T-cells) [%],"Correlation of T-cell responses to carb-LL37 and native LL37 (SLE CD4 T-cells; SI, Spearman, Figure 3b)","Correlation of T-cell proliferation with SLEDAI or autoantibodies to LL37 (SLE CD4 T-cells; SI, Spearman, Figure 4a,b)",Antigen efficiency compared to cit-LL37 (SLE CD4 T-cells; SLE cohort analyzed),"Plasma cells (CD38highCD27highCD19neg) (memory B-cells; 10 µM peptide + DNA, Figure S9b) [%]","Plasma cells (CD38highCD27highCD19neg) (memory B-cells; 10 µM peptide alone, Figure S9a) [%]","Plasma cells (CD38highCD27highCD19neg) (memory B-cells; 20 µM peptide + DNA, Figure S9c) [%]","Stimulation of B-cells to mature into plasma cells, peptide-DNA complex (memory B-cells)",Net charge [1]
L*LGDFFRK*SK*EK*IGKEFK*RIVQRIK*DFLRNLVPRTES [carb-LL37],62,significant SLE serum antibody reactivity,significantly higher anti-carb-LL37 antibody reactivity,A significant correlation was appreciated,correlated significantly with anti-cit-LL37 antibody reactivity,less but still in a significant manner,"significant proliferation of SLE CD4 T-cells, although less efficiently than cit-LL37",18.3,32,correlated moderately,moderate but significant correlation,less efficient antigen compared to cit-LL37,14.73,7.27,28.09,maintained LL37 ability to stimulate the B-cells to mature into plasma cells,+1
"LLGDFFR(cit)KSKEKIGKEFKR(cit)IVQR(cit)IKDFLR(cit)NLVPR(cit)TES [cit-LL37, LL37 citrullinated at all five arginine sites]",–,–,non-significant anti-cit- and anti-native-LL37 antibody increase,both responses also correlated with SLEDAI,–,–,–,–,52,–,–,–,–,–,–,abolishes the B-cell maturation into plasma cells,+1
